Assay results from US9850183B2, “Conjugates derived from non-steroidal anti-inflammatory drugs and methods of use thereof in imaging” (Reiley Pharmaceuticals, Inc., priority 2014, dated 2017).
Like-named read-outs stand apart in the source and are kept apart here.

Experiments:
[1] = target: T1, COX-2 (Mus musculus, UniProt Q05769); assay: Cell-based COX-2 assay (PGE2 in LPS/IFN-g stimulated RAW264.7 cells); settings: RAW264.7 murine macrophages, 1 μg/ml LPS and 10 U/ml IFN-g for 7 h, PGE2 readout
T1 construct: endogenous in cells; host or cells: RAW264.7 murine macrophages, stimulated with LPS and IFN-g
T1 sequence (Q05769 18-604): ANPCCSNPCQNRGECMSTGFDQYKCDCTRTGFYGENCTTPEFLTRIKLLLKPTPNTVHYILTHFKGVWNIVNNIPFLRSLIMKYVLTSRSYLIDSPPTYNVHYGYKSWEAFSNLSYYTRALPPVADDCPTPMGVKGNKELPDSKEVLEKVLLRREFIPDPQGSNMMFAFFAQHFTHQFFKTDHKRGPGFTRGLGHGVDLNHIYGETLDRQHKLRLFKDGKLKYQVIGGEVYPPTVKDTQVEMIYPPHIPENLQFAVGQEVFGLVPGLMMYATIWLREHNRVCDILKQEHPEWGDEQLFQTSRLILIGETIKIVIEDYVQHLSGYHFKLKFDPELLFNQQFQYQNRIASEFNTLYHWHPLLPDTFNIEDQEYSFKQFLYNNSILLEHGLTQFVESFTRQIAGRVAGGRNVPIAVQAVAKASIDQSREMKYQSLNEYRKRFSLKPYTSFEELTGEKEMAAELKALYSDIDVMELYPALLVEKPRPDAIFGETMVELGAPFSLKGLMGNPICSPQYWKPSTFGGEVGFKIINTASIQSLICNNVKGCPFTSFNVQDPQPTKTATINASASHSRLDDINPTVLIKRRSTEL
Description: RAW264.7 murine macrophages were obtained from the Cell Bank of Shanghai Institute of Biochemistry and Cell Biology, Chinese Academy of Sciences (Shanghai, China) and cultured in Dulbecco's modified Eagle's medium containing 100 U/ml penicillin and 100 μg/ml streptomycin at 37° C. in 5% CO2.
RAW264.7 cells were plated at a density of 2.5×10^5/ml cells in a 96-well plate with 0.1 ml of culture medium per well and cultured overnight. The cells were pre-incubated for 30 min with various doses of compounds and stimulated for 7 h with 1 μg/ml LPS and 10 U/ml IFN-g. The cell culture supernatants were collected immediately following treatment and centrifuged at 1,000 rpm for 5 min to remove the particulate matter. PGE2 was determined using a Prostaglandin E2 assay kit (catalog no. 62P2APEB; Cisbio Co.,). 10 μL of cell supernatant was transferred to a 384-well low volume plate (e.g. Corning® 3544), 5 μL of PGE2-d2 was added, followed by 5 μL anti-PGE2 Cryptate as a negative control. Replace the standard by 10 μL of diluent and PGE2-d2 by 5 μL of reconstitution buffer, Cal0 (for positive control), replace the standard by 10 μL of diluent. Incubate at 4° C. overnight. After centrifuging at 1,000 rpm for 1 min, the dual fluorescence emissions of 615 and 665 nm with a 320 nm excitation were measured using an Envision plate reader (Perkin Elmer, Shelton, Conn.). The results are expressed as the ratio of 665 nm/615 nm emissions.
(§1) Dose-response curves were generated using XLFit (IDBS, Surrey, UK) or Prism (GraphPad Software, La Jolla, Calif., US) to calculate IC50 values for each compound tested.

[2] = target: T2, human COX-2 (Homo sapiens, UniProt P35354); assay: COX-2 enzyme assay (EIA kit, PGF2α readout); format: biochemical
T2 construct: purchased Cayman Chemical Co., Ann Arbor, Mich., USA 701080
T2 sequence (P35354 18-604): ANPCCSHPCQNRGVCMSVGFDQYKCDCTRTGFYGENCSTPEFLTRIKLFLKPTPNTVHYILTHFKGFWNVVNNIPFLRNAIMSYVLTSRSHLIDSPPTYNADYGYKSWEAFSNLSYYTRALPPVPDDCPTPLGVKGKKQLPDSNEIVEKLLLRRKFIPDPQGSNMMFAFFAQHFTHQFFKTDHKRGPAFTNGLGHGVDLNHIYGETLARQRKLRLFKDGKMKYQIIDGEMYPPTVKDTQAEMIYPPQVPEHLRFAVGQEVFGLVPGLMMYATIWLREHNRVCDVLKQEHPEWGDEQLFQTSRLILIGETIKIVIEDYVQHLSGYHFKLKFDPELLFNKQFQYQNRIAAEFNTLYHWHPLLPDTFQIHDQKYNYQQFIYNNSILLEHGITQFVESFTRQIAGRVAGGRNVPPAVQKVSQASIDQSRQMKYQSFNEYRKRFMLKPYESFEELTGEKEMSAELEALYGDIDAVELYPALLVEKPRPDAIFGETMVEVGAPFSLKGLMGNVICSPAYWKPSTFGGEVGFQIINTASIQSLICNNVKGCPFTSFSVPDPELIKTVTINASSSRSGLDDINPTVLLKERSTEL
Description: The ability of compounds to inhibit ovine COX-1 and human COX-2 was determined using a commercially available enzyme immunoassay (EIA) kit (catalog no. 701090 (COX-1); 701080 (COX-2) Cayman Chemical Co., Ann Arbor, Mich., USA) according to the manufacturer's protocol. COX catalyzes the first step in the biosynthesis of AA to PGH2. PGF2α, produced from PGH2 by reduction with stannous chloride, was measured by EIA (ACE™ competitive EIA, Cayman Chemical, Ann Arbor, Mich., USA). Briefly, to a series of supplied reaction buffer solutions [960 μl 0.1 M Tris-HCl (pH 8.0) containing 5 mM EDTA and 2 mM phenol] with either COX-1 or COX-2 (10 μl) enzyme in the presence of heme (10 μl), 10 μl of various concentrations of test drug solutions were added. These solutions were incubated for 15 min at 37° C. and subsequently 10 μl AA solution (100 μM) was added. The COX reaction was stopped by the addition of 30 μl stannus chloride after 2 min, mixed immediately, supernatants were 2000 fold diluted. The produced PGF2α was measured by EIA. This assay is based on the competition between PGs and a PG-acetylcholinesterase conjugate (PG tracer) for a limited amount of PG antiserum. The amount of PG tracer that is able to bind to the PG antiserum is inversely proportional to the concentration of PGs in the wells since the concentration of the PG tracer is held at a constant while the concentration of PGs varies. The specific antiserum-PG complex bound to a mouse anti-rabbit IgG that had been previously attached to the well. The plate was washed to remove any unbound reagents and 200 μl Ellman's reagent (5,5′-dithiobis-(2-nitrobenzoic acid), which contains the substrate to acetylcholine esterase, was added to the well. The product of this enzymatic reaction generates a distinct yellow color that absorbs at 406 nm. The intensity of this color, determined by spectrophotometry, is proportional to the amount of PG tracer bound to the well, which is inversely proportional to the amount of PGs present in the well during the incubation. Percent inhibition was calculated by the comparison of the compounds treated to the various control incubations.
as §1

[3] = human COX-2 enzyme, EIA, 15 min pre-incubation at 37° C., read-out: COX-2 IC50 (μM) enzyme

| SMILES | IC50 [1] [µM] | IC50 [2, 3] [µM] | IC50 [2] [µM] |
| --- | --- | --- | --- |
| COc1ccc2c(c1)c(CC(=O)NCCCOCCCNC(=O)c1ccc[cH-]1)c(C)n2C(=O)c1ccc(Cl)cc1.[C-]#[O+].[C-]#[O+].[C-]#[O+].[Re+] [Compound 310] | 0.2 | > 30 | – |
| COc1ccc2c(c1)c(CC(=O)NCCCC(C)(C)NC(=O)c1ccc[cH-]1)c(C)n2C(=O)c1ccc(Cl)cc1.[C-]#[O+].[C-]#[O+].[C-]#[O+].[Re+] [Compound 311] | 0.4 | – | – |
| CCOC(=O)C1C[S][Re]23(=[O])[S]CC(C(=O)NCCCCCCCCNC(=O)Cc4c(C)n(C(=O)c5ccc(Cl)cc5)c5ccc(OC)cc45)[N]2CC[N]13 (stereo not shown) [Compound 183] | 0.7 | 0.4 | – |
| Cc1c(CC(=O)O)c2cc(OCCCCNC(=O)C[N]3C(=O)C[N]4C(=O)C[N]5C(=O)C[S][Re]354=[O])ccc2n1C(=O)c1ccc(Cl)cc1 [Compound 35] | – | – | 1.6 |
| COc1ccc2c(c1)c(CC(=O)NCCCCCCCC[N+]13CC[S][Re-]14(=[O])[S]CC[N]4C(=O)C3)c(C)n2C(=O)c1ccc(Cl)cc1 (stereo not shown) [Compound 265] | 0.1 | – | 2.1 |
| COc1ccc2c(c1)c(CC(=O)NCCOCC[N+]13CC[S][Re-]14(=[O])[S]CC[N]4C(=O)C3)c(C)n2C(=O)c1ccc(Cl)cc1 (stereo not shown) [Compound 262] | 1.7 | – | 0.9 |
| CCOC(=O)C1C[S][Re]23(=[O])[S]CC(C(=O)NCCOCCOCCNC(=O)Cc4c(C)n(C(=O)c5ccc(Cl)cc5)c5ccc(OC)cc45)[N]2CC[N]13 (stereo not shown) [Compound 178] | 1.8 | 0.2 | – |
| COc1ccc2c(c1)c(CC(=O)NCCOCCOCCOCCNC(=O)[c-]1cccc1)c(C)n2C(=O)c1ccc(Cl)cc1.[C-]#[O+].[C-]#[O+].[C-]#[O+].[Re+] [Compound 248] | > 30 | 0.2 | – |
| COc1ccc2c(c1)c(CC(=O)NCCOCCNC(=O)[c-]1cccc1)c(C)n2C(=O)c1ccc(Cl)cc1.[C-]#[O+].[C-]#[O+].[C-]#[O+].[Re+] [Compound 244] | 1.5 | > 30 | – |
| NS(=O)(=O)c1ccc(-n2nc(CNC(=O)c3ccc[cH-]3)cc2-c2ccc(F)cc2)cc1.[C-]#[O+].[C-]#[O+].[C-]#[O+].[Re+] [Compound 365] | 1.1 | 7.9 | – |
| [2H]C([2H])([2H])Oc1ccc2c(c1)c(CC(=O)NCCCCCC[N+]13CC[S][Re-]14(=[O])[S]CC[N]4C(=O)C3)c(C)n2C(=O)c1ccc(Cl)cc1 (stereo not shown) [Compound 346] | 0.2 | 0.3 | – |
| COc1ccc2c(c1)c(CC(=O)NCCCCCC[N+]13CC[S][Re-]14(=[O])[S]CC[N]4C(=O)C3)c(C(F)(F)F)n2C(=O)c1ccc(Cl)cc1 (stereo not shown) [Compound 351] | 0.4 | > 30 | – |
| COc1ccc2c(c1)c(CC(=O)NCCCNCCC[N+]13CC[S][Re-]14(=[O])[S]CC[N]4C(=O)C3)c(C)n2C(=O)c1ccc(Cl)cc1 (stereo not shown) [Compound 320] | 5 | – | – |
| COc1ccc2c(c1)c(CC(=O)NCCC(C)(C)CCNC(=O)c1ccc[cH-]1)c(C)n2C(=O)c1ccc(Cl)cc1.[C-]#[O+].[C-]#[O+].[C-]#[O+].[Re+] [Compound 309] | 0.3 | 0.5 | – |
| COc1ccc2c(c1)c(CC(=O)NCCCOCC[N+]13CC[S][Re-]14(=[O])[S]CC[N]4C(=O)C3)c(C)n2C(=O)c1ccc(Cl)cc1 (stereo not shown) [Compound 267] | 0.3 | > 30 | – |
| Cc1c(CC(=O)O)c2cc(OCCCCCCNC(=O)C[N]3C(=O)C[N]4C(=O)C[N]5C(=O)C[S][Re]354=[O])ccc2n1C(=O)c1ccc(Cl)cc1 [Compound 39] | – | – | 1.1 |
| COc1ccc2c(c1)c(CC(=O)NCCCS(=O)(=O)CCC[N+]13CC[S][Re-]14(=[O])[S]CC[N]4C(=O)C3)c(C)n2C(=O)c1ccc(Cl)cc1 (stereo not shown) [Compound 268] | > 10 | > 30 | – |
| NS(=O)(=O)c1ccc(-n2nc(CNC(=O)CCCCC[N+]34CC[S][Re-]35(=[O])[S]CC[N]5C(=O)C4)cc2-c2ccc(F)cc2)cc1 (stereo not shown) [Compound 367] | > 10 | – | 4.5 |
| COc1ccc2c(c1)c(CC(=O)NCCCCNC(=O)C[N]1C(=O)C[N]3C(=O)C[N]4C(=O)C[S][Re]143=[O])c(C)n2C(=O)c1ccc(Cl)cc1 [Compound 23] | – | 12 | – |
| COc1ccc2c(c1)c(CC(=O)NCCCCC[N+]13CC[S][Re-]14(=[O])[S]CC[N]4C(=O)C3)c(C)n2C(=O)c1ccc(Cl)cc1 (stereo not shown) [Compound 263] | 0.3 | – | 0.3 |
| COc1ccc2c(c1)c(CC(=O)NCCCCCNC(=O)c1ccc[cH-]1)c(C)n2C(=O)c1ccc(Cl)cc1.[C-]#[O+].[C-]#[O+].[C-]#[O+].[Re+] [Compound 308] | 0.2 | 0.9 | – |
| COc1ccc2c(c1)c(CC(=O)NCCCC[N+]13CC[S][Re-]14(=[O])[S]CC[N]4C(=O)C3)c(C)n2C(=O)c1ccc(Cl)cc1 (stereo not shown) [Compound 261] | 1.8 | 0.8 | – |
| COc1ccc2c(c1)c(CC(=O)NCCNC(=O)[c-]1cccc1)c(C)n2C(=O)c1ccc(Cl)cc1.[C-]#[O+].[C-]#[O+].[C-]#[O+].[Re+] [Compound 243] | 0.7 | 0.5 | – |
| COc1ccc2c(c1)c(CC(=O)NCCCCCC(C)(C)NC(=O)c1ccc[cH-]1)c(C)n2C(=O)c1ccc(Cl)cc1.[C-]#[O+].[C-]#[O+].[C-]#[O+].[Re+] [Compound 313] | 0.2 | – | – |
| COc1ccc2c(c1)c(CCNC(=O)CC[N+]13CC[S][Re-]14(=[O])[S]CC[N]4C(=O)C3)c(C)n2C(=O)c1ccc(Cl)cc1 (stereo not shown) [Compound 356] | 1.6 | – | – |
